We go through 34 compounds from patent US12679839B2, “Cyclin-dependent kinase 7 (CDK7) non-covalent inhibitors” (JANSSEN PHARMACEUTICA NV, priority 2020, dated 2026).

The test system of test [1] is RNA polymerase II Serine 5 phosphorylation (Rpb1 CTD), downstream substrate of CDK7. The experiment in a line: Imaging-based cellular RNA PolII Ser5 phosphorylation assay in A549 cells. It counts as cell-based, human. The note with it: Homo sapiens, A549, 3 h, challenged with compound for 3 hours, read-out: pRNA polII Ser5 (A549) pIC50 (converted). In short, it runs like this: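 A549 cells seeded 20 h in DMEM with 1% FBS, then exposed to compound for 3 h at 37 °C; fixed, methanol-permeabilized and immunostained for phospho-Rpb1 CTD Ser5, read by automated imaging. Signal normalized to DMSO (high) and 10 μM LDC4297 (low) controls; IC50 from four-parameter fit of % control vs concentration.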

Test [2] addresses T1, CDK7/Cyclin H/MAT-1 complex (Homo sapiens, UniProt P50613).
T1 construct: Human CDK7 (amino acids 1-346); His6 (N); TEV protease cleavage site (N); made in house; host or cells: baculovirus-SF9 insect cells
The experiment in a line: Flint assay, end-point fluorescence (5 nM CDK7/Cyclin H/MAT-1 complex). It counts as biochemical. The note with it: for IC50: read-out: CDK7 (5 nM) pIC50 (converted). In a few lines: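 Trimeric complex of His6-TEV-tagged human CDK7 (1-346), MAT1 (1-309) and cyclin H (1-323), co-expressed in Sf9 cells, at 5 nM final, with substrates and coupling reagents as in the absorbance assay; 24 h reaction. End-point NADH fluorescence decrease (ex 340/em 440 nm); % inhibition versus no-inhibitor and full-inhibition controls, IC50 from four-parameter Hill fit.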

Bounds are passed on as bounds.

T1 sequence (P50613 whole entry, the tested form may be a part): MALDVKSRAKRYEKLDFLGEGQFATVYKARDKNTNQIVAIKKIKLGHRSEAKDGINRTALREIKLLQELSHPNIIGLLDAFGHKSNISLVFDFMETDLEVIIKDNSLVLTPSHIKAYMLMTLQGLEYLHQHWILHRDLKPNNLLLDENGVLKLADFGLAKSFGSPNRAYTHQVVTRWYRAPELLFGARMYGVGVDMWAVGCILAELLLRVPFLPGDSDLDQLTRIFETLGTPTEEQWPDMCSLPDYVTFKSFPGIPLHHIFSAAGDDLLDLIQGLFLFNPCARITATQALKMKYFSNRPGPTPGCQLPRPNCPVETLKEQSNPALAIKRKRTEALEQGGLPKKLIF
T1 sequence (P51946 whole entry partner, the tested form may be a part): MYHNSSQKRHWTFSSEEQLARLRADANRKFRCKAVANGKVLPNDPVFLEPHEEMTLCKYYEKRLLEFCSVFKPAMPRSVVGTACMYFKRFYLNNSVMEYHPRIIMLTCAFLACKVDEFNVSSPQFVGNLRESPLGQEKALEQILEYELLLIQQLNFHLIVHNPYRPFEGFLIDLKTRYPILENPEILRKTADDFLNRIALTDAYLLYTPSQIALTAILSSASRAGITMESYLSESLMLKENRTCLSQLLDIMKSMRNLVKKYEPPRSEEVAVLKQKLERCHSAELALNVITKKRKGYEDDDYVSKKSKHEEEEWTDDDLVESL
T1 sequence (P51948 whole entry partner, the tested form may be a part): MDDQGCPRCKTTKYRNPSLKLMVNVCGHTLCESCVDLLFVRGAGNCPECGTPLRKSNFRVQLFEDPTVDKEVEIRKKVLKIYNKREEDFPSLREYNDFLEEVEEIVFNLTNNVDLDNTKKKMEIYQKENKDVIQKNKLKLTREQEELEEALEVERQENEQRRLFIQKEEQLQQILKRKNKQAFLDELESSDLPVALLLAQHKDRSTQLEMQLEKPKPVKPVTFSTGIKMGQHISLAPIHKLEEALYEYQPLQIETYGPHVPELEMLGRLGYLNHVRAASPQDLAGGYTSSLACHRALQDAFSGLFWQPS

For `CC(C)N1CC[C@H](C(=O)N2Cc3nc(NC4CCOCC4)ncc3C[C@H]2C)[C@@H](c2cccc(Cl)c2)C1` (single isomer, unassigned) [Compound 160], the IC50 in test [1] was 135 nM. For the same compound, the “CDK7 (5 nM) pIC50” value in test [2] amounted to 8.58.
In the case of `C[C@H]1Cc2cnc(NC3CCOCC3)cc2CN1C(=O)[C@H]1CCN(C)C[C@@H]1c1ccccc1` (single isomer, unassigned) [Compound 171a], the IC50 in test [1] was 288 nM; in test [2], 5.75 nM.
On to `C[C@H]1Cc2cnc(NC3(c4ccccc4)COC3)cc2CN1C(=O)[C@H]1CCN(C)C[C@@H]1c1ccccc1` (single isomer, unassigned) [Compound 175], for which the IC50 in test [1] is 166 nM. In addition, in test [2], the “CDK7 (5 nM) pIC50” value was 8.13.
In the case of `CN1CC[C@H](C(=O)N2Cc3nc(NCc4ccn(C)n4)ncc3CC2(C)C)[C@@H](c2ccccc2)C1` (single isomer, unassigned) [Compound 191], in test [1], the IC50 is about 4270 nM. Also, the “CDK7 (5 nM) pIC50” value in test [2] is 7.41.
Consider `C[C@@H]1Cc2cnc(NCc3ccn(C)n3)nc2CN1C(=O)[C@H]1CCN(C)C[C@@H]1c1ccccc1` [Compound 1], for which the IC50 in test [1] is about 45.7 nM. In test [2], the “CDK7 (5 nM) pIC50” value was determined as 8.61.
On to `C[C@@H]1Cc2cnc(NC3CCC(OCC4CC4)CC3)nc2CN1C(=O)[C@H]1CCN(C)C[C@@H]1c1ccccc1` (some centres unmarked) [Compound 3], for which the IC50 in test [1] is 60.3 nM. For the same compound, the “CDK7 (5 nM) pIC50” value in test [2] is given as 8.3.
Turning to `CO[C@]1(C)CC[C@@H](Nc2ncc3c(n2)CN(C(=O)[C@H]2CCN(C)C[C@@H]2c2ccccc2)[C@H](C)C3)CC1` [Compound 10], the IC50 in test [1] was 158 nM. Also, the “CDK7 (5 nM) pIC50” value in test [2] turned out to be 8.11.
For `C[C@@H]1Cc2cnc(N[C@H]3CC[C@H](O)CC3)nc2CN1C(=O)[C@H]1CCN(C)C[C@@H]1c1ccccc1` [Compound 12], in test [1], the IC50 was 93.3 nM. In test [2], the “CDK7 (5 nM) pIC50” value is reported as 8.49.
In the case of `C[C@@H]1Cc2cnc(N[C@H]3CC[C@H](C)CC3)nc2CN1C(=O)[C@H]1CCN(C)C[C@@H]1c1ccccc1` [Compound 13], the IC50 in test [1] was about 33.9 nM. Moreover, in test [2], the “CDK7 (5 nM) pIC50” value is on record as 8.85.
With `C[C@H](Nc1ncc2c(n1)CN(C(=O)[C@H]1CCN(C)C[C@@H]1c1ccccc1)[C@H](C)C2)c1ccccn1` [Compound 20], the IC50 in test [1] is about 14.1 nM. Further, the “CDK7 (5 nM) pIC50” value in test [2] is listed as 8.19.
Take `C[C@@H]1Cc2cnc(N[C@H](C)c3ccccc3)nc2CN1C(=O)[C@H]1CCN(C)C[C@@H]1c1ccccc1` [Compound 22]: the IC50 in test [1] is about 14.1 nM. In addition, the “CDK7 (5 nM) pIC50” value in test [2] turned out to be 8.19.
For the compound `C[C@@H]1Cc2cnc(NC3Cc4ccccc4C3)nc2CN1C(=O)[C@H]1CCN(C)C[C@@H]1c1ccccc1` [Compound 29], the IC50 in test [1] was 12.6 nM. Also, in test [2], the “CDK7 (5 nM) pIC50” value worked out at 8.55.
Regarding `CO[C@H]1CC[C@H](Nc2ncc3c(n2)CN(C(=O)[C@H]2CCN(C)C[C@@H]2c2ccccc2)[C@H](C)C3)CC1` [Compound 37], the IC50 in test [1] is about 33.9 nM. The “CDK7 (5 nM) pIC50” value in test [2] is 8.6.
For `C[C@@H]1Cc2cnc(NCc3ccccc3)nc2CN1C(=O)[C@H]1CCN(C)C[C@@H]1c1ccccc1` [Compound 43], the IC50 in test [1] is 107 nM. Moreover, in test [2], the “CDK7 (5 nM) pIC50” value worked out at 8.11.
Taken in the same sequence, the figures for `C[C@@H]1Cc2cnc(NC3CCS(=O)(=O)CC3)nc2CN1C(=O)[C@H]1CCN(C)C[C@@H]1c1ccccc1` [Compound 44] were 3090 nM and 8.04.
Taken in the same sequence, the figures for `C[C@@H]1Cc2cnc(NC3CCN(CC(F)(F)F)CC3)nc2CN1C(=O)[C@H]1CCN(C)C[C@@H]1c1ccccc1` [Compound 45] were 437 nM and 7.65.
As to `C[C@@H]1Cc2cnc(NCc3ccsc3)nc2CN1C(=O)[C@H]1CCN(C)C[C@@H]1c1ccccc1` [Compound 48], the IC50 in test [1] is 132 nM. Moreover, the “CDK7 (5 nM) pIC50” value in test [2] is given as 7.92.
For the compound `C[C@@H]1Cc2cnc(NCC3CCS(=O)(=O)C3)nc2CN1C(=O)[C@H]1CCN(C)C[C@@H]1c1ccccc1` (some centres unmarked) [Compound 49], the IC50 in test [1] is over 10000 nM. Moreover, the “CDK7 (5 nM) pIC50” value in test [2] stood at 7.2.
For `Cc1ccc(CNc2ncc3c(n2)CN(C(=O)[C@H]2CCN(C)C[C@@H]2c2ccccc2)[C@H](C)C3)o1` [Compound 50], the IC50 in test [1] was 72.4 nM. Besides, in test [2], the “CDK7 (5 nM) pIC50” value is recorded as 8.05.
Turning to `C[C@@H]1Cc2cnc(NCc3cc[nH]n3)nc2CN1C(=O)[C@H]1CCN(C)C[C@@H]1c1ccccc1` [Compound 51], the IC50 in test [1] is 1320 nM; in test [2], 8.32 nM.
As to `Cc1ncc(CNc2ncc3c(n2)CN(C(=O)[C@H]2CCN(C)C[C@@H]2c2ccccc2)[C@H](C)C3)[nH]1` [Compound 52], the IC50 in test [1] was 2450 nM. For the same compound, in test [2], the “CDK7 (5 nM) pIC50” value stood at 7.9.
With `C[C@@H]1Cc2cnc(NC[C@H]3CCOC3)nc2CN1C(=O)[C@H]1CCN(C)C[C@@H]1c1ccccc1` [Compound 53], the IC50 in test [1] was 575 nM. Also, in test [2], the “CDK7 (5 nM) pIC50” value is on record as 7.99.
On to `C[C@@H]1Cc2cnc(NCc3cc(C(F)F)n(C)n3)nc2CN1C(=O)[C@H]1CCN(C)C[C@@H]1c1ccccc1` [Compound 56], for which the IC50 in test [1] is 5130 nM. For the same compound, in test [2], the “CDK7 (5 nM) pIC50” value is listed as 7.44.
`C[C@@H]1Cc2cnc(NCc3cnn(C)c3)nc2CN1C(=O)[C@H]1CCN(C)C[C@@H]1c1ccccc1` [Compound 57]: the IC50 in test [1] was 2950 nM. Besides, the “CDK7 (5 nM) pIC50” value in test [2] is given as 7.53.
On the same counts, the results for `CCn1ccc(CNc2ncc3c(n2)CN(C(=O)[C@H]2CCN(C)C[C@@H]2c2ccccc2)[C@H](C)C3)n1` [Compound 58] are 22.9 nM and 8.63.
Take `C[C@@H]1Cc2cnc(N[C@H]3CCC[C@H](O)C3)nc2CN1C(=O)[C@H]1CCN(C)C[C@@H]1c1ccccc1` [Compound 59]: the IC50 in test [1] was 141 nM. Further, the “CDK7 (5 nM) pIC50” value in test [2] is listed as 8.28.
For the compound `C[C@@H]1Cc2cnc(NCc3ccn(C)c3)nc2CN1C(=O)[C@H]1CCN(C)C[C@@H]1c1ccccc1` [Compound 60], the IC50 in test [1] is 214 nM; in test [2], 3.55 nM.
Consider `Cc1cn(C)nc1CNc1ncc2c(n1)CN(C(=O)[C@H]1CCN(C)C[C@@H]1c1ccccc1)[C@H](C)C2` [Compound 61], for which the IC50 in test [1] was 912 nM. The “CDK7 (5 nM) pIC50” value in test [2] turned out to be 7.97.
Taken in the same sequence, the figures for `C[C@@H]1Cc2cnc(NC[C@@H]3CCOC3)nc2CN1C(=O)[C@H]1CCN(C)C[C@@H]1c1ccccc1` [Compound 62] were 617 nM and 8.33.
Take `Cc1cc(CNc2ncc3c(n2)CN(C(=O)[C@H]2CCN(C)C[C@@H]2c2ccccc2)[C@H](C)C3)nn1C` [Compound 65]: the IC50 in test [1] is 6610 nM. Also, the “CDK7 (5 nM) pIC50” value in test [2] turned out to be 7.33.
For `CC(C)n1ccc(CNc2ncc3c(n2)CN(C(=O)[C@H]2CCN(C)C[C@@H]2c2ccccc2)[C@H](C)C3)n1` [Compound 66], the IC50 in test [1] was about 28.2 nM. Further, the “CDK7 (5 nM) pIC50” value in test [2] came out at 8.56.
As to `C[C@@H]1Cc2cnc(NC[C@@H]3CCCO3)nc2CN1C(=O)[C@H]1CCN(C)C[C@@H]1c1ccccc1` [Compound 67], the figures for the IC50 in test [1] and in test [2] were 1320 nM and 16.6 nM, respectively.
For the compound `C[C@@H]1Cc2cnc(NC3CCC(OC(F)F)CC3)nc2CN1C(=O)[C@H]1CCN(C)C[C@@H]1c1ccccc1` (some centres unmarked) [Compound 69], the IC50 in test [1] was 58.9 nM. Besides, the “CDK7 (5 nM) pIC50” value in test [2] is listed as 8.57.
For the compound `[2H]C([2H])(Nc1ncc2c(n1)CN(C(=O)[C@H]1CCN(C)C[C@@H]1c1ccccc1)[C@H](C)C2)c1ccccc1` [Compound 70], the IC50 was 148 nM in test [1] and 1.78 nM in test [2].
